Test results from ChEMBL document CHEMBL4376898, “Enhanced Activity against Multidrug-Resistant Bacteria through Coapplication of an Analogue of Tachyplesin I and an Inhibitor of the QseC/B Signaling Pathway” (J Med Chem, 2020).
Converted amounts (≈) assume the structure as drawn.

How the values were obtained:
Format in all cases: functional
Staphylococcus aureus [1] = assay: Antimicrobial activity against Staphylococcus aureus BAA 44 assessed as inhibition of visible growth incubated for 18 hrs; settings: BAA 44, 18 h
Staphylococcus aureus [2] = assay: Antimicrobial activity against Staphylococcus aureus BAA 41 assessed as inhibition of visible growth incubated for 18 hrs; settings: BAA 41, 18 h
Escherichia coli [3] = assay: Antimicrobial activity against Escherichia coli ATCC 25923 assessed as inhibition of visible growth incubated for 18 hrs; settings: ATCC 25923, 18 h
Staphylococcus aureus [4] = assay: Antimicrobial activity against Staphylococcus aureus ATCC 29213 assessed as inhibition of visible growth incubated for 18 hrs; settings: ATCC 29213, 18 h
Staphylococcus aureus [5] = assay: Bactericidal activity against Staphylococcus aureus ATCC 29213
Bacillus subtilis [6] = assay: Bactericidal activity against Bacillus subtilis 168
Pseudomonas aeruginosa [7] = assay: Antimicrobial activity against Pseudomonas aeruginosa BAA 2108 assessed as inhibition of visible growth incubated for 18 hrs; settings: BAA 2108, 18 h
Acinetobacter baumannii [8] = assay: Bactericidal activity against Acinetobacter baumannii ATCC 19606; settings: ATCC 19606 = CIP 70.34 = JCM 6841
Enterobacter cloacae = assay: Antimicrobial activity against Enterobacter cloacae BAA 1143 assessed as inhibition of visible growth incubated for 18 hrs; settings: BAA 1143, 18 h
Acinetobacter baumannii [9] = assay: Antimicrobial activity against Acinetobacter baumannii ATCC 19606 assessed as inhibition of visible growth incubated for 18 hrs; settings: ATCC 19606 = CIP 70.34 = JCM 6841, 18 h
[10] = Antimicrobial activity against Lysobacter enzymogenes YC36 assessed as inhibition of visible growth measured after 7th generation exposure to compound by continuous repeated transfer assay (reference value: 8 ug/ml)
Enterococcus faecium [11] = assay: Antimicrobial activity against Enterococcus […] ATCC 29212 assessed as inhibition of visible growth incubated for 18 hrs; settings: ATCC 29212, 18 h
Escherichia coli [12] = assay: Antimicrobial activity against Escherichia coli BAA 2469 assessed as inhibition of visible growth incubated for 18 hrs; settings: BAA 2469, 18 h
Klebsiella pneumoniae [13] = assay: Antimicrobial activity against Klebsiella pneumoniae BAA 1144 assessed as inhibition of visible growth incubated for 18 hrs; settings: BAA 1144, 18 h
Enterococcus faecium [14] = assay: Bactericidal activity against Enterococcus […] ATCC 29212
[15] = Antimicrobial activity against Lysobacter enzymogenes YC36 assessed as inhibition of visible growth measured after 7th generation exposure to compound by continuous repeated transfer assay relative to before passage
Pseudomonas aeruginosa [16] = assay: Antimicrobial activity against Pseudomonas aeruginosa ATCC 27853 assessed as inhibition of visible growth incubated for 18 hrs; settings: ATCC 27853, 18 h
[17] = Bactericidal activity against Lysobacter enzymogenes YC36
Shigella flexneri = assay: Bactericidal activity against Shigella flexneri ATCC 29903
Escherichia coli [18] = assay: Bactericidal activity against Escherichia coli K-12
Escherichia coli [19] = assay: Antimicrobial activity against Escherichia coli K-12 assessed as inhibition of visible growth incubated for 18 hrs; settings: K-12, 18 h
[20] = Bactericidal activity against Lysobacter enzymogenes YC36 with delta qseB mutant assessed as killing of bacterial cells at 2 ug/ml relative to control
[21] = Antimicrobial activity against Lysobacter enzymogenes YC36 assessed as inhibition of visible growth measured after 7th generation exposure to compound by continuous repeated transfer assay (reference value: 4 ug/ml)
Pseudomonas aeruginosa [22] = assay: Bactericidal activity against Pseudomonas aeruginosa ATCC 27853
[23] = Bactericidal activity against Lysobacter enzymogenes YC36 with delta qseC mutant assessed as killing of bacterial cells at 2 ug/ml relative to control
Bacillus subtilis [24] = assay: Antimicrobial activity against Bacillus subtilis 168 assessed as inhibition of visible growth incubated for 18 hrs; settings: Bacillus subtilis, 168, 18 h
Klebsiella pneumoniae [25] = assay: Antimicrobial activity against Klebsiella pneumoniae BAA 2470 assessed as inhibition of visible growth incubated for 18 hrs; settings: BAA 2470, 18 h

CC[C@@H](C)[C@H]1NC(=O)CNC(=O)[C@@H](CCCNC(=N)N)NC(=O)[C@@H](Cc2ccc(O)cc2)NC(=O)[C@H]2CSSC[C@@H](NC1=O)C(=O)N[C@H](Cc1ccc(O)cc1)C(=O)N[C@H](CCCNC(=N)N)C(=O)N[C@H](CCCNC(=N)N)C(=O)N[C@@H](C(=O)N[C@H](CCCNC(=N)N)C(N)=O)CSSC[C@@H](NC(=O)[C@@H](Cc1c[nH]c3ccccc13)NC(=O)[C@H](N)CCCCN)C(=O)N[C@H](Cc1ccccc1)C(=O)N[C@H](CCCNC(=N)N)C(=O)N[C@H](C(C)C)C(=O)N2
MIC (Staphylococcus aureus [1]): 4 µg/mL (≈ 1.77 µM) | MIC (Staphylococcus aureus [2]): 4 µg/mL (≈ 1.77 µM) | MIC (Escherichia coli [3]): 8 µg/mL (≈ 3.53 µM) | MIC (Staphylococcus aureus [4]): 8 µg/mL (≈ 3.53 µM) | MBC (Staphylococcus aureus [5]): 16 to 64 µg/mL (≈ 7.07 to 28.3 µM) | MBC (Bacillus subtilis [6]): 16 to 64 µg/mL (≈ 7.07 to 28.3 µM) | MIC (Pseudomonas aeruginosa [7]): 8 µg/mL (≈ 3.53 µM) | MBC (Acinetobacter baumannii [8]): 16 to 64 µg/mL (≈ 7.07 to 28.3 µM) | MIC (Enterobacter cloacae): 8 µg/mL (≈ 3.53 µM) | MIC (Acinetobacter baumannii [9]): 8 µg/mL (≈ 3.53 µM) | MIC [10]: 16 µg/mL (≈ 7.07 µM) | MIC (Enterococcus faecium [11]): 4 µg/mL (≈ 1.77 µM) | MIC (Escherichia coli [12]): 8 µg/mL (≈ 3.53 µM) | MIC (Klebsiella pneumoniae [13]): 16 µg/mL (≈ 7.07 µM) | MBC (Enterococcus faecium [14]): 16 to 64 µg/mL (≈ 7.07 to 28.3 µM) | fold change (FC) [15]: 4 | MIC (Pseudomonas aeruginosa [16]): 8 to 16 µg/mL (≈ 3.53 to 7.07 µM) | MBC [17]: 16 to 64 µg/mL (≈ 7.07 to 28.3 µM) | MBC (Shigella flexneri): 16 to 64 µg/mL (≈ 7.07 to 28.3 µM) | MBC (Escherichia coli [18]): 16 to 64 µg/mL (≈ 7.07 to 28.3 µM) | MIC (Escherichia coli [19]): 8 µg/mL (≈ 3.53 µM) | Activity [20]: <=100% | MIC [21]: 16 µg/mL (≈ 7.07 µM) | MBC (Pseudomonas aeruginosa [22]): 16 to 64 µg/mL (≈ 7.07 to 28.3 µM) | Activity [23]: <=100% | MIC (Bacillus subtilis [24]): 4 µg/mL (≈ 1.77 µM) | MIC (Klebsiella pneumoniae [25]): 16 µg/mL (≈ 7.07 µM)
